The values below come from US8703961B2, “Thiazole derivatives for the treatment of diseases such as cancer” (Merck Patent GmbH, priority 2009, dated 2014).

Holding throughout (experiment): filter binding kinase assay
What all share (type): biochemical

In assay [1] the target is T1, AURKB (Homo sapiens, UniProt Q96GD4).
T1 construct: purchased
Conditions: derived from % inhibition at 1 μM. In short, it runs like this:
(§1)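 Compound was pre-incubated with enzyme and substrate for 5 minutes at room temperature, then the reaction was started with ATP (added solution at 5, 20 or 50 […] depending on kinase). Orthophosphoric acid stopped it, and phosphorylated substrate captured on P81 filters was quantified by scintillation counting.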

Assay [2] addresses T2, MARK4 (Homo sapiens, UniProt Q96L34).
T2 construct: purchased
T2 sequence (Q96L34 1-752): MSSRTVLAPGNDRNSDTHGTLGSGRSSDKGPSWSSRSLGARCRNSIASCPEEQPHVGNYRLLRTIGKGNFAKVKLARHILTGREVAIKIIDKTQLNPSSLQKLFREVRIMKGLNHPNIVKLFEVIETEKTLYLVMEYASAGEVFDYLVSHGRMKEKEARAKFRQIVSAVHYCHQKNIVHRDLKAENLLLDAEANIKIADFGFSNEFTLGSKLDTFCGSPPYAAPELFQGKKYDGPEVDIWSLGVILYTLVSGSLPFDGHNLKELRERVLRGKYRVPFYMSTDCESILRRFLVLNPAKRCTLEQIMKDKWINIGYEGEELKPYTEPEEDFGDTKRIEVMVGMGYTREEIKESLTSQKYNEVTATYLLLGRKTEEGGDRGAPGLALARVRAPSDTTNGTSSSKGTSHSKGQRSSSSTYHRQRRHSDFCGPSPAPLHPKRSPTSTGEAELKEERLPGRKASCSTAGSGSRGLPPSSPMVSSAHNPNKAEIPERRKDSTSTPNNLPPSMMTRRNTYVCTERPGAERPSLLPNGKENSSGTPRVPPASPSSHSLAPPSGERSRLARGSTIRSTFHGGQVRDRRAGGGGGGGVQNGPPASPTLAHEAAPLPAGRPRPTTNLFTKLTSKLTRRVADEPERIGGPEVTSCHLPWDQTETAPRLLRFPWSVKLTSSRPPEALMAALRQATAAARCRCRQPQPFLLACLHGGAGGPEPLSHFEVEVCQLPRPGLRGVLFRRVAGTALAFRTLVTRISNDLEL
Conditions: derived from % inhibition at 1 μM. In short, it runs like this:
as §1

Assay [3] has as its target T3, HIPK2 (Homo sapiens, UniProt Q9H2X6).
T3 construct: purchased
Conditions: for IC50: derived from % inhibition at 1 μM. In short, it runs like this:
as §1

The target of assay [4] is T4, GSK3B (GSK3b) (Homo sapiens, UniProt P49841).
T4 construct: purchased
T4 sequence (P49841 whole entry, species assumed): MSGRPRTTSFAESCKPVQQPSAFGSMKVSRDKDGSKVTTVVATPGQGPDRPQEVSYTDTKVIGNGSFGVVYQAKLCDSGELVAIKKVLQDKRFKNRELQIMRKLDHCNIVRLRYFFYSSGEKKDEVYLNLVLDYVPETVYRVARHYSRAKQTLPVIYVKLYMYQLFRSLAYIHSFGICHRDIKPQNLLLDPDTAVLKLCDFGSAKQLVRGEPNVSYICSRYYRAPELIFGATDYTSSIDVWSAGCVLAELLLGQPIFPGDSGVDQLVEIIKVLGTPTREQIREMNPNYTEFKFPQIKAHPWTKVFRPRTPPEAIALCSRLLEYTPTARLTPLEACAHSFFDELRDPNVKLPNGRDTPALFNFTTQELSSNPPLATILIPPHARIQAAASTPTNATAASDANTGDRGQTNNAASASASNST
Conditions: for IC50: derived from % inhibition at 1 μM. An outline of the steps: as §1

For assay [5], the target named is T5, MARK3 (Homo sapiens, UniProt P27448).
T5 construct: purchased
T5 sequence (P27448 whole entry, species assumed): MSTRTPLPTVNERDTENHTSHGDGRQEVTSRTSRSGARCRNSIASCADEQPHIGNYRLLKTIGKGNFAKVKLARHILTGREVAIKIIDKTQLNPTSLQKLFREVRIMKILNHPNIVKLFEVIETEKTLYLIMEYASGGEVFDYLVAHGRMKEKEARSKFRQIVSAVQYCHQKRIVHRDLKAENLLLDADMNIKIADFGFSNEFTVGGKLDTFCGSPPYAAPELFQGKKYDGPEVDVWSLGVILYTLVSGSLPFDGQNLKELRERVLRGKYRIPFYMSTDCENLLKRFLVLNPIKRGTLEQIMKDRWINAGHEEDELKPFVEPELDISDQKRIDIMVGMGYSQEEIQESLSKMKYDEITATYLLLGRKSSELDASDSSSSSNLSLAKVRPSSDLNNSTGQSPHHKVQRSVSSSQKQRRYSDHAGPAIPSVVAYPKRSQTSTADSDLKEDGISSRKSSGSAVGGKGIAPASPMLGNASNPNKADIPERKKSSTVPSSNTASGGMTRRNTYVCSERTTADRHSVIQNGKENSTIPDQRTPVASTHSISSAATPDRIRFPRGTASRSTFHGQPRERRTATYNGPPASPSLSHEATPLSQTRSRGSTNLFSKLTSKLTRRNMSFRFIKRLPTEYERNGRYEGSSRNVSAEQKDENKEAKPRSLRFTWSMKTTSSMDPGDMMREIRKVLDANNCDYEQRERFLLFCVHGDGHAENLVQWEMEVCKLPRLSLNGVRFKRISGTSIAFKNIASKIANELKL
The conditions noted are these: for IC50: derived from % inhibition at 1 μM. In short, it runs like this: as §1

Assay [6] addresses T6, YES1 (Homo sapiens, UniProt P07947).
T6 construct: purchased
Conditions: derived from % inhibition at 1 μM. In short, it runs like this: as §1

In assay [7] the target is T7, STK3 (Homo sapiens, UniProt Q13188).
T7 construct: purchased
T7 sequence (Q13188 1-491): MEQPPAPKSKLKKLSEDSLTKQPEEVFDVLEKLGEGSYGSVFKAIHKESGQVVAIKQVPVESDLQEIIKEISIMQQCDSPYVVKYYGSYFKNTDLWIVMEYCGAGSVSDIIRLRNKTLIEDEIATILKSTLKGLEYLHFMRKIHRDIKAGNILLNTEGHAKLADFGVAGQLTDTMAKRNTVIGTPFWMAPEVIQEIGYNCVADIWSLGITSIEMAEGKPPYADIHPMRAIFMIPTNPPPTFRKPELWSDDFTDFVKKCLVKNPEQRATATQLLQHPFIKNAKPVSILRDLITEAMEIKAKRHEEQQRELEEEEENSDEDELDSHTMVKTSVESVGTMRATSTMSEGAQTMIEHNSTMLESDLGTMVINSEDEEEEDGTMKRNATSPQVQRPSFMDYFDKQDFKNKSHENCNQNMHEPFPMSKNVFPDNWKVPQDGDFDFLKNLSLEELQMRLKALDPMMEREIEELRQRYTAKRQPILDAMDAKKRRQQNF
The conditions noted are these: derived from % inhibition at 1 μM. An outline of the steps:
as §1

For assay [8], the target named is T8, MAPK1 (Homo sapiens, UniProt P28482).
T8 construct: purchased
T8 sequence (P28482 whole entry, species assumed): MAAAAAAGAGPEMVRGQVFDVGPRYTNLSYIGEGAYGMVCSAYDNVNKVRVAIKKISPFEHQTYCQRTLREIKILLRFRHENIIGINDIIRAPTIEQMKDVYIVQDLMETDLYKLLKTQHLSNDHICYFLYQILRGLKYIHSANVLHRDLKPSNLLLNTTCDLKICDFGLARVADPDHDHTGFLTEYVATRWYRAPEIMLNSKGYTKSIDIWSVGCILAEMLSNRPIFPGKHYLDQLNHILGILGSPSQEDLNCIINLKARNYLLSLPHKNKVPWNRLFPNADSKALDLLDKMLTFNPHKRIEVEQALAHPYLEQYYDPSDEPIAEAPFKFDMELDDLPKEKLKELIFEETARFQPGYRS
The conditions noted are these: derived from % inhibition at 1 μM; first MAPK1 line. An outline of the steps: as §1

Assay [9] concerns the target T9, MAP4K2 (GCK) (Homo sapiens, UniProt Q12851).
T9 construct: purchased
T9 sequence (Q12851 1-820): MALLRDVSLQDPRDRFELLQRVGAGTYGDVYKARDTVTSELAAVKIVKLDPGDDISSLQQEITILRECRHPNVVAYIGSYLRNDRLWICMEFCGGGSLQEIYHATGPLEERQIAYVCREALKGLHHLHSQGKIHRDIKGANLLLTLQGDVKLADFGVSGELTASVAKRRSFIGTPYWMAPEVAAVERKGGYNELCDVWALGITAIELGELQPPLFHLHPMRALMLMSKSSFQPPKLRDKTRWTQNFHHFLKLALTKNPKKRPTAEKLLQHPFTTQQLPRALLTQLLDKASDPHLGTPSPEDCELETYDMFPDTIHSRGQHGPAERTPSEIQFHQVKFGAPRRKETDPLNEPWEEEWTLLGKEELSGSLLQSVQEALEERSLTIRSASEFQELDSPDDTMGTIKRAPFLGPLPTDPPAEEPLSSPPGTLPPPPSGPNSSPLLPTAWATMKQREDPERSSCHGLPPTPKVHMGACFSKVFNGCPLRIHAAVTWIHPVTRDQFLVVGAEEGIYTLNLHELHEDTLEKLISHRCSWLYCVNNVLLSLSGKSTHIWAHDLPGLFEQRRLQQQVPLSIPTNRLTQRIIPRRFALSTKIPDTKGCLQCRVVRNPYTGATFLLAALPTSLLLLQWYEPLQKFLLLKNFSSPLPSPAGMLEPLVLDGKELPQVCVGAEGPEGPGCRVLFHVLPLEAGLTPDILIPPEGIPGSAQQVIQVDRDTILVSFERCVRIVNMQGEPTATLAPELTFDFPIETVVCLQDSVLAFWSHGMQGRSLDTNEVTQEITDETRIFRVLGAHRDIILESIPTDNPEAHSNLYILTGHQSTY
Conditions: for IC50: derived from % inhibition at 1 μM. An outline of the steps: as §1

The target of assay [10] is T10, CDK2 (Homo sapiens, UniProt P24941).
T10 construct: purchased
The conditions noted are these: for IC50: derived from % inhibition at 1 μM; for remaining activity at 1 µM: read-out: residual kinase activity CDK2. An outline of the steps:
as §1

The target of assay [11] is T11, IGF1R (Homo sapiens, UniProt P08069).
T11 construct: purchased
T11 sequence (P08069 31-1367, species assumed): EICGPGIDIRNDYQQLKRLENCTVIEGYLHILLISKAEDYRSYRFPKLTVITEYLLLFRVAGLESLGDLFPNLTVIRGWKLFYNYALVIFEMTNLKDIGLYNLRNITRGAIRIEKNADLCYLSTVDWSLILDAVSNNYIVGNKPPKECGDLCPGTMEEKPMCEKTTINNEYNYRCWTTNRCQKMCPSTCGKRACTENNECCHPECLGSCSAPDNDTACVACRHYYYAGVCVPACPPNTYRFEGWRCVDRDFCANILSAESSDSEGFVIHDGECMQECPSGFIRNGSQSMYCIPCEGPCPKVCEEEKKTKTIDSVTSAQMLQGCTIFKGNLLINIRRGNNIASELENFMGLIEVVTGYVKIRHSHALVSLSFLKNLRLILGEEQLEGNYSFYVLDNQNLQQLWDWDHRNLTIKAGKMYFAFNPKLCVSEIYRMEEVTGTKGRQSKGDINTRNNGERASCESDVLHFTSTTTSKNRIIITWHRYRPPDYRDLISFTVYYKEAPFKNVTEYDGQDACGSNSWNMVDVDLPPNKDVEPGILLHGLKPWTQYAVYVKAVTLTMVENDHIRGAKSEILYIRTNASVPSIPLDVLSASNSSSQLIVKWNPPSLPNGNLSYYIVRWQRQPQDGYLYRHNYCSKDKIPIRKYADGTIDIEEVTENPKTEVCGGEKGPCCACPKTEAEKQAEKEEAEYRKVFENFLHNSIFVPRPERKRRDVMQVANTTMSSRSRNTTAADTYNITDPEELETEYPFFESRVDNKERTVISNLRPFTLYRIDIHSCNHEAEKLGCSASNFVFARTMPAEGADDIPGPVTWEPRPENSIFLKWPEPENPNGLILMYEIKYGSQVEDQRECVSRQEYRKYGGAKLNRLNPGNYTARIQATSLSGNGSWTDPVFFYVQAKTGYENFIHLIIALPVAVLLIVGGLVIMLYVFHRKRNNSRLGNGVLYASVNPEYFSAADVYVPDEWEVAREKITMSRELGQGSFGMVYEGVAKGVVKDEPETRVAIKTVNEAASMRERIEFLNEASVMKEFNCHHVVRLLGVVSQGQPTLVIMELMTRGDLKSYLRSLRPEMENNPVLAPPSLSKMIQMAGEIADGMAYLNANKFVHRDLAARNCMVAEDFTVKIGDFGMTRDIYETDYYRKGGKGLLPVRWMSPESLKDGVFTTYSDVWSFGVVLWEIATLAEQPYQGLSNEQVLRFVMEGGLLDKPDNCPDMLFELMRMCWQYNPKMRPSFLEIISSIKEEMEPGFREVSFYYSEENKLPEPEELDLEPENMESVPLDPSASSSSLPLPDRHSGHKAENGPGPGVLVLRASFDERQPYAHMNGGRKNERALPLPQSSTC
The conditions noted are these: derived from % inhibition at 1 μM. An outline of the steps: as §1

T6 sequence (P07947 whole entry, species assumed): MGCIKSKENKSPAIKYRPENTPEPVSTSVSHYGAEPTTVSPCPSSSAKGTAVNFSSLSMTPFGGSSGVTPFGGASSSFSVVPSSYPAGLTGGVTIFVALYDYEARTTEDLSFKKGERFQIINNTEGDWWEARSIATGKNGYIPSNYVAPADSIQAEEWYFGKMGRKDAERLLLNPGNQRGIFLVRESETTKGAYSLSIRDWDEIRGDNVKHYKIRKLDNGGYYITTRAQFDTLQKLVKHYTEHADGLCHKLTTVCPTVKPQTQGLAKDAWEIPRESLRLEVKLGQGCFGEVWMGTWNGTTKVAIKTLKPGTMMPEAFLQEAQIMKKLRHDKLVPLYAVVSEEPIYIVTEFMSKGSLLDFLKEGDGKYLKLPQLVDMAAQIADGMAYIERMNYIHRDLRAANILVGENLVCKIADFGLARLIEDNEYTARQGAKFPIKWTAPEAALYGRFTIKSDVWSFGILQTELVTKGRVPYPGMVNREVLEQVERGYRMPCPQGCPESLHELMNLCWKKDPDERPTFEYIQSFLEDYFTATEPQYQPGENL
T3 sequence (Q9H2X6 whole entry, species assumed): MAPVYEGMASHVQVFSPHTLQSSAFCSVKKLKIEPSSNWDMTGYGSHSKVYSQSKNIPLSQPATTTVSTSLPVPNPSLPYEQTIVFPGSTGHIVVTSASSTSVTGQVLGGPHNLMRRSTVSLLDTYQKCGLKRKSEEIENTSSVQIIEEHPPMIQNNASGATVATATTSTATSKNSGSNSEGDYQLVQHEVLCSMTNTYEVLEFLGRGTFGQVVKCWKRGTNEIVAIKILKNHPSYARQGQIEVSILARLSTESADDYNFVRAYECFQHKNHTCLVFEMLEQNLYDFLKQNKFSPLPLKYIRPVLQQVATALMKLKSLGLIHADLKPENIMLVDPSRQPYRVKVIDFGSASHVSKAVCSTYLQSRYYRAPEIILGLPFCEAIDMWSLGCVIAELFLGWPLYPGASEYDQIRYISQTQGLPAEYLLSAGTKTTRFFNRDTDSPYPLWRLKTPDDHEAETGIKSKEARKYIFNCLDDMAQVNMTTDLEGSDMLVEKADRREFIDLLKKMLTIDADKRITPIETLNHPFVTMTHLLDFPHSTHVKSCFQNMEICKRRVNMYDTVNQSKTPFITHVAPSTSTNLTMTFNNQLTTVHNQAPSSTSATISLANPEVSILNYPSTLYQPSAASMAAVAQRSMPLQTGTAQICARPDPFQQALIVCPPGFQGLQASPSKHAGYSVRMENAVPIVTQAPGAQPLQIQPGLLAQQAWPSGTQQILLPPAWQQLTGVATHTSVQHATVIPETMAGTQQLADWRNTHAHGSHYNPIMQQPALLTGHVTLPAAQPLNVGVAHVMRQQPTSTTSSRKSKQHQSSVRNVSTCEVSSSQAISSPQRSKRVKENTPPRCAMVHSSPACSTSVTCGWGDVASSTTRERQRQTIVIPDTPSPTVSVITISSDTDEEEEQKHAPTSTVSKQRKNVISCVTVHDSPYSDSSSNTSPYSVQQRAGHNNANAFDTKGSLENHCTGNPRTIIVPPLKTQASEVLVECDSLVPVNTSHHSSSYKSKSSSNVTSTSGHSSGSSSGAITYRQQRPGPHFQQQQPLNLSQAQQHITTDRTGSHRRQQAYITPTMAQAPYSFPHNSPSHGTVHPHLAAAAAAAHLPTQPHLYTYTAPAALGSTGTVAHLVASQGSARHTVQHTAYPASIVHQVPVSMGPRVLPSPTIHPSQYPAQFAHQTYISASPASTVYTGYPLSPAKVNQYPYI
T1 sequence (Q96GD4 whole entry, species assumed): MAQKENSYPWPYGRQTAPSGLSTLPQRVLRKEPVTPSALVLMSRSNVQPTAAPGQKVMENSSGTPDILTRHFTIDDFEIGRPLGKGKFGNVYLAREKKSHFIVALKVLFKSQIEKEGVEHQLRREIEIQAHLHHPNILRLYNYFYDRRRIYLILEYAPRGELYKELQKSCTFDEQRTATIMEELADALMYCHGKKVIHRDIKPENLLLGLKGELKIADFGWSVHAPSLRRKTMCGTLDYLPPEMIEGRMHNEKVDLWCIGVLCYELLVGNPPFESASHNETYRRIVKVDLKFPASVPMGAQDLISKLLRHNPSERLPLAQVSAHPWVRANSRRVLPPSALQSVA

For `Nc1ncsc1C#Cc1cnc2[nH]ccc2c1` [Compound A22, 5-(1H-pyrrolo[2,3-b]pyridin-5-ylethynyl)thiazol-4-ylamine], the IC50 lay in the range of 10 to 100 µM in assay [1]; 10 to 100 µM in assay [2]; 0.01 to 1 µM in assay [3]; 0.01 to 1 µM in [4]; 0.01 to 1 µM in [5]; 1 to 10 µM in assay [6]. Moreover, the IC50 in assay [7] was 10 to 100 µM; in assay [8], 10 to 100 µM; in [9], 0.01 to 1 µM; in [10], 1 to 10 µM; in assay [11], 1 to 10 µM. Also, the remaining activity at 1 µM in assay [3] (read-out: residual kinase activity HIPK2) amounted to 44%; in assay [4] (read-out: residual kinase activity GSK3b), 9%; in assay [5] (read-out: residual kinase activity MARK3), 15%; in [9] (read-out: residual kinase activity GCK), 31%; in assay [10], 52%.
Regarding `CC(C)(C)OC(=O)Nc1ncsc1C#CCN1C(=O)c2ccccc2C1=O` [Compound A26, tert-butyl{5-[3-(1,3-dioxo-1,3-dihydroisoindol-2-yl)prop-1-ynyl]-thiazol-4-yl}carbamate], the 50% inhibitory concentration (IC50) in assay [1] is more than 1 µM; in assay [2], more than 1 µM; in [3], 1 to 10 µM; in assay [4], 1 to 10 µM; in assay [5], 1 to 10 µM; in assay [6], more than 1 µM. Further, the IC50 in [7] is more than 1 µM; in [8], 10 to 100 µM; in assay [9], 1 to 10 µM; in assay [10], 0.01 to 1 µM; in assay [11], more than 1 µM. In addition, the remaining activity at 1 µM in assay [10] was 28%.
`Nc1ncsc1C#Cc1cccc(O)c1` [Compound A27, 3-(4-aminothiazol-5-ylethynyl)phenol]: the IC50 in assay [1] was 10 to 100 µM; in assay [2], 1 to 10 µM; in assay [3], more than 1 µM; in assay [4], 1 to 10 µM; in assay [5] it was 10 to 100 µM; in [6] it was more than 1 µM. Also, the IC50 in [7] is 1 to 10 µM; in assay [8] it was 1 to 10 µM; in assay [9] it was 1 to 10 µM; in assay [10], 10 to 100 µM; in [11], more than 1 µM.
For `CC(C)(C)OC(=O)Nc1nc(-c2ccncc2)sc1C#CCN1CCOCC1` [Compound A25, tert-butyl[5-(3-morpholin-4-ylprop-1-ynyl)-2-pyridin-4-ylthiazol-4-yl]-carbamate], the IC50 in [1] is more than 1 µM; in assay [2] it was 10 to 100 µM; in assay [3], more than 1 µM; in assay [4], more than 1 µM; in [5], more than 1 µM; in [6], more than 1 µM. For the same compound, the half-inhibitory concentration (IC50) in assay [7] was more than 1 µM; in [8] it was more than 1 µM; in assay [9], more than 1 µM; in assay [10], 10 to 100 µM; in assay [11], more than 1 µM.
Turning to `c1ccc(Cc2c[nH]c3ncsc23)cc1` [Compound A7, 6-benzyl-4H-pyrrolo[2,3-d]thiazole], the IC50 was 1 to 10 µM in [1]; more than 1 µM in assay [2]; more than 1 µM in assay [3]; 1 to 10 µM in [4]; 1 to 10 µM in assay [5]; more than 1 µM in assay [6]. The IC50 in [7] was 1 to 10 µM; in assay [8], more than 1 µM; in [9], 1 to 10 µM; in assay [10], 0.01 to 1 µM; in assay [11], 10 to 100 µM. Besides, the remaining activity at 1 µM in assay [10] stood at 41%.

What is called IC50 is the concentration needed to halve the response being measured. A lower IC50 goes with greater potency in that assay.
